From ChEMBL document CHEMBL5604062, “ASAP - ZIKV NS2B-NS3 protease fluorescence dose response” (2024)
Where “and” joins values, the source holds several entries; their conditions need not be identical. Equal values may be shown once.

Molecular target: Nonstructural protein 3 (Zika virus, UniProt A0A024AXB9)
Assay: Functional biochemical assay to identify treatments for viral infectious disease that targets Zika NS2B-NS3 protease. Utilizing a direct enzyme activity measurement method, reading the fluorescence intensity is used to characterize the relative potency of inhibitors as IC50.
Set-up: species or system PRVABC59

Sequence of Nonstructural protein 3 (A0A024AXB9 whole entry): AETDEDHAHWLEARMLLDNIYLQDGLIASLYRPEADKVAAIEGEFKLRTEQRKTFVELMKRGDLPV

Compound	IC50
Cc1cc(C)cc(C(=O)N2CCC(NS(=O)(=O)c3ccc(Cl)cc3C(=O)O)CC2)c1	> 99.5 µM
O=C(NCC(F)F)[C@H](Nc1ccc2c(c1)CNC2)c1cc(Cl)cc2ccoc12	0.028 µM and 0.018 µM
CCn1c(=O)c(N2CC[C@@]23CCN(C)C3)nc2ccccc21	> 99.5 µM
N#CC1(S(=O)(=O)N2CCC([C@H](NC(=O)OCc3ccccc3)C(=O)Nc3cccc(CN)c3)CC2)CCC1	97.6 µM
N#C[C@H](Nc1cccc(C(=O)O)c1)c1cc(Cl)cc2[nH]ncc12	> 99.5 µM
Clc1ccc2nc(C3CCOCC3)n(Cc3ccc4c(c3)CNC4)c2c1	> 99.5 µM
CCn1c(=O)c(N2CC[C@@]3(COC(=O)N3)C2)nc2ccccc21	> 99.5 µM
O=C(N[C@@H](C(=O)NCc1cccc(CN2CCCCC2)c1)c1ccc(OCc2ccccc2)cc1)OCc1ccccc1	> 99.5 µM
CCn1ccnc(N[C@@H](Cc2c[nH]c3ccccc23)C(N)=O)c1=O	> 99.5 µM
CCn1ccnc(N2C[C@@H](OC(=O)OC)[C@H](c3c[nH]c4ccccc34)C2)c1=O	> 99.5 µM
C1=C(c2cccnc2)CN(Cc2c[nH]c3ccccc23)CC1	> 99.5 µM
CC(C)[C@@H]1[C@H](C(=O)Nc2cccc(CN)c2)CCN1C(=O)OCc1ccccc1	> 99.5 µM
Cc1c(C(=O)Nc2cc(-c3ccccc3)ccn2)cc(C2CC2)n1C	> 25 µM
O=C(Nc1ccc2c(c1)CNC2)c1cc(Cl)cc2c1NCCC2	0.151 µM
Cn1ccnc1C(=O)N[C@H](C(=O)Nc1cccc(CN)c1)c1ccc(OCc2ccccc2)cc1	> 99.5 µM
Nc1ccc(CNC(=O)[C@@H](NC(=O)OCc2ccccc2)c2ccc(OCc3ccccc3)cc2)nc1	> 99.5 µM
NCc1cccc(NC(=O)c2cc(NC(=O)OCc3ccccc3)cc(C(F)(F)F)c2F)c1	> 99.5 µM
OC[C@H]1CCN(c2cnc3ccccc3n2)C1	> 99.5 µM
C[C@H]1C[C@@H](C(=O)Nc2cccc(CN)c2)CCO1	> 99.5 µM
Cc1ccc(F)c(-c2ccc([C@@H](NC(=O)OCc3ccccc3)C(=O)Nc3cccc(CN)c3)cc2)c1	6.81 µM
CCc1ccccc1-c1ccc([C@@H](NC(=O)OCc2ccccc2)C(=O)Nc2cccc(CN)c2)cc1	5.83 µM
O=C(O)c1cc(Cl)cc(F)c1NS(=O)(=O)c1ccc(Oc2ccccc2Cl)cc1	67 µM
CCN(C(=O)Cn1ccnc(N2CC[C@H](CO)C2)c1=O)C(C)C	> 99.5 µM
N#C[C@H](Nc1ccc(-c2nn[nH]n2)cc1)c1cc(Cl)cc(NC(=O)OCc2ccccc2)c1	19.3 µM
Cc1c(C(=O)Nc2cccc(-c3cccnc3)c2)cc(C2CC2)n1C	> 25 µM
C[C@](O)(Cc1cc(Cl)cc(NC(=O)OCc2ccccc2)c1)c1cccc(CN)c1	> 99.5 µM

Compound	IC50
CC(C)(C)c1noc2nc(C(=O)Nc3ccc4c(c3)CNC4)ccc12	> 25 µM
NCC1(c2ccc(C(=O)N3CCc4scc(Br)c4C3)cc2)CC1	> 99.5 µM
C=CC[C@H](Nc1ccc2c(c1)CNC2)c1cc(Cl)cc2[nH]ncc12	7.93 µM
N[C@H]1Cc2ccc(NC(=O)c3cc(Cl)cc(NC(=O)OCc4ccccc4)c3)cc2C1	2.49 µM
CCn1c(=O)c(N2C[C@@H]3[C@H](C2)[C@H]3C(=O)OC)nc2ccccc21	> 99.5 µM
O=C(Nc1ccc2c(c1)CNC2)c1ccc2scnc2c1	15 µM and > 25 µM
CS(=O)(=O)Nc1c(Cl)cc(Cl)cc1C(=O)Nc1cccc(CN)c1	> 99.5 µM
COc1ccc([C@@H](CC(=O)Nc2cccc(CN)c2)NC(=O)OCc2ccccc2)cc1Br	93.9 µM
O=Cc1ccc(N2CCC(C(=O)Nc3ncc(Br)cc3O)CC2)cc1	54 µM
Cn1cc(C(=O)O)c(NS(=O)(=O)c2ccc(Oc3ccccc3Cl)cc2)n1	> 99.5 µM
CCc1cc(C(=O)Nc2cccc(-c3nnn[nH]3)c2)sc1C	> 99.5 µM
O=C(O)c1nscc1NS(=O)(=O)c1ccc(Oc2ccccc2Cl)cc1	> 99.5 µM
CC[C@H]1CN2CCC[C@H]2CN1c1nc2ccccc2n(CC)c1=O	> 99.5 µM
NCc1ccc2c(c1)N(C(=O)[C@@H](NC(=O)OCc1ccccc1)c1ccc(OCc3ccccc3)cc1)CC2	12.3 µM
NCc1cc(C=C2CC(C(=O)O)C2)cc(NC(=O)c2cc(Cl)cc(NC(=O)OCc3ccccc3)c2)c1 (stereo unspecified)	9.31 µM
O=C(Nc1cc(Cl)cc(-c2ccc3cc(C(=O)O)[nH]c3c2)c1)OCc1ccccc1	11.8 µM
COc1cccc(C2CCN(Cc3c[nH]c4ccccc34)CC2)c1	64.3 µM
O=C(Nc1cc2c(cc1Br)CNC2)c1cc(Cl)cc2[nH]ncc12	0.051 µM and 0.034 µM
O=C(NCC(F)F)[C@H](Nc1ccc2c(c1)CNC2)c1cc(Cl)ccc1OC[C@H]1CCCO1	0.129 µM
C[C@@H](NC(=O)c1cc(Cl)ccc1NS(=O)(=O)c1ccc(Oc2ccccc2Cl)cc1)[C@H]1CCCO1	> 99.5 µM
CC(C)N1C(=O)C[C@H](C(=O)Nc2cccc(CN)c2)[C@H]1c1ccc(Cl)c(F)c1	> 99.5 µM
CC(C)c1ccc([C@@H](NC(=O)OCc2ccccc2)C(=O)Nc2cccc(CN)c2)cc1	87.7 µM
CC[C@@H](C)c1nc(C)cc(N2CCC(n3ncc(N)c3C(F)(F)F)CC2)n1	> 99.5 µM
NCc1cccc(NC(=O)c2cc(N)cc(NC(=O)OCc3ccccc3)c2)c1	> 99.5 µM
CNC(=O)[C@H](Nc1ccc2c(c1)CNC2)c1cc(Cl)cc2[nH]ncc12	0.075 µM and 0.05 µM
COC(=O)[C@@H]1CC2(CC[C@@H]1NS(=O)(=O)c1ccc(Oc3ccccc3Cl)cc1)CC2	> 99.5 µM

Compound	IC50
NCc1cccc(NC(=O)[C@@H](NC(=O)OCc2ccccc2)c2ccc(OCc3ccccc3)cc2)c1	11.6 µM
O=c1ccc(N2CCN(Cc3c[nH]c4ccccc34)CC2)c[nH]1	> 99.5 µM
CCn1ncc2c(C(=O)Nc3cccc(CN)c3)cc(C)nc21	> 99.5 µM
O=C(Nc1cc(Cl)cc(C(=O)Nc2ccc(CCN3CCOCC3)cc2)c1)OCc1ccccc1	> 99.5 µM
O=C(O)c1c(NS(=O)(=O)c2ccc(Oc3ccccc3Cl)cc2)ccc(Cl)c1F	54.1 µM
NCCCc1ccc(F)c(NC(=O)c2cc(Cl)cc(NC(=O)OCc3ccccc3)c2)c1	6.27 µM
CN1CCC(COc2cccc([C@H](NC(=O)OCc3ccccc3)C(=O)Nc3cccc(CN)c3)c2)CC1	87.6 µM
C=CC[C@H](Nc1cncc(Cl)c1)c1cccc(-c2nn[nH]n2)c1	> 99.5 µM
CCn1cc(-c2ccc(S(C)(=O)=O)cc2)nc(N2CC[C@@H](CO)C2)c1=O	> 99.5 µM
C[C@H]1CN(C)C[C@@H](C(=O)Nc2cccc(CN)c2)O1	> 99.5 µM
O=C(O)c1cc(Cl)ccc1S(=O)(=O)N[C@H]1CC[C@H]2CN(Cc3ccccc3)C[C@H]2C1	> 99.5 µM
CNC(=O)[C@H](Nc1ccc2c(c1)CNC2)c1cc(Cl)cc(C2CC2)c1	0.055 µM and 0.042 µM
Cc1c(C(=O)Nc2cc(C(=O)N3CCC(O)CC3)ccn2)cc(C2CC2)n1C	> 25 µM
Cc1cc(CN)cc(C)c1NS(=O)(=O)c1ccc(Oc2ccccc2Cl)cc1	81.3 µM
NCc1cccc(NC(=O)[C@@H]2CCC[C@@H](NC(=O)OCc3ccccc3)C2)c1	> 99.5 µM
COc1cc(-c2cc(Cl)cc(NC(=O)OCc3ccccc3)c2)c(OC)cc1CC(=O)O	94.2 µM
NCCc1cccc(NC(=O)[C@H]2[C@H]3CCCCC[C@H]3[C@H]2NC(=O)OCc2ccccc2)c1	7.87 µM
CCN(CC(=O)NC)C(=O)c1cc(Cl)ccc1NS(=O)(=O)c1ccc(Oc2ccccc2Cl)cc1	> 99.5 µM
NCc1cccc(NC(=O)[C@H](NC(=O)OCc2ccccc2)C2CCN(S(=O)(=O)c3ccccc3)CC2)c1	> 99.5 µM
CCn1ccnc(N2CC[C@@H](CC(N)=O)C2)c1=O	> 99.5 µM
Cc1ccc(C(=O)N[C@H](C(=O)Nc2cccc(CN)c2)c2ccc(OCc3ccccc3)cc2)s1	60 µM
NCc1cccc(NC(=O)[C@@H](NC(=O)OCc2ccccc2)C2CCN(C(=O)C3CC3)CC2)c1	> 99.5 µM
CCOC(=O)[C@H]1[C@H](c2cc(Cl)cc(NC(=O)OCc3ccccc3)c2)[C@H]1c1cccc(-c2nnn[nH]2)c1	26.9 µM
CC1(C)CCC(F)(F)C[C@H]1C(=O)Nc1cccc(CN)c1	> 99.5 µM
O=C(Nc1cc(-c2cccnc2)ccn1)c1csc(C2CC2)n1	> 25 µM
O=C(Nc1cc(Cl)cc(C(=O)Nc2ccccc2[C@@H]2C[C@H]2C(=O)O)c1)OCc1ccccc1	> 99.5 µM

Compound	IC50
CCc1ncc(CN2CCC(c3nc4ccccc4s3)CC2)[nH]1	> 99.5 µM
Cc1ccc(NC(=O)c2cc(Cl)cc3[nH]ncc23)cc1N	> 99.5 µM
CCn1ccnc(N2CC[C@H](c3ccc(C#N)cc3)C2)c1=O	> 99.5 µM
CCn1ccnc(N2CC[C@@H](CO)C2)c1=O	> 99.5 µM
Cc1c(C(=O)Nc2cccc(C3CCNCC3)c2)cc(C2CC2)n1C	> 99.5 µM
O=C(Nc1ccc2c(c1)OCO2)c1cc(Cl)cc2[nH]ncc12	> 99.5 µM
CCCC[C@H](NC(C)=O)C(=O)N[C@H](C(=O)NCc1ccc(CN)cc1)c1ccc(OCc2ccccc2)cc1	60.4 µM
Cc1cc(CN)cc(NC(=O)c2cccc3c2CC(=O)N3)c1	3.05 µM
Cc1noc(C)c1Cc1ccc(C(=O)Nc2cccc(CN)c2)o1	> 99.5 µM
O=C(Nc1ccc2c(c1)CNC2)N1CC[C@H](CC(F)(F)F)C1	> 25 µM
CCn1c(=O)c(N2CC[C@H](N3CCCC3=O)C2)nc2ccccc21	> 99.5 µM
Brc1cccc2cn(Cc3ncccn3)nc12	> 99.5 µM
c1cncc([C@@H]2CN(Cc3c[nH]c4ccccc34)CCO2)c1	> 99.5 µM
N=C(N)NCCc1ccc(NC(=O)C(=O)c2ccccc2)cc1	> 198 µM
NCc1cccc(NC(=O)c2cc(NC(=O)OCc3ccccc3)cc(C(N)=O)c2)c1	> 99.5 µM
Cc1nc2c(C(=O)Nc3ccc4c(c3)CNC4)cc(Cl)cc2[nH]1	0.117 µM
COc1cc(Br)cc(C(=O)Nc2ccc3c(c2)CNC3)c1	0.332 µM
COC(=O)c1cc(CN)cc([C@@H]2C[C@H]2c2cc(Cl)cc(NC(=O)OCc3ccccc3)c2)c1	31.7 µM
O=C(Nc1cc(Cl)cc([C@H]2CN(Cc3ccccc3)C[C@@H]2c2cccc(-c3nn[nH]n3)c2)c1)OCc1ccccc1	6.87 µM
COCC(=O)N1CCC([C@@H](NC(=O)OCc2ccccc2)C(=O)Nc2cccc(CN)c2)CC1	> 99.5 µM
CS(=O)(=O)c1ccc(N2CCNCC2)cc1NC(=O)c1cccc2ncccc12	> 99.5 µM
C[C@]1(OCCO)C(=O)Nc2cc(F)cc(C(=O)Nc3ccc4c(c3)CNC4)c21	1.14 µM
Cc1nn(C)cc1-c1ccc(S(=O)(=O)Nc2ccc(Cl)cc2C(=O)O)cc1	> 99.5 µM
